Source: ChEMBL document CHEMBL1833813, “Synthesis of a series of γ-amino alcohols comprising an N-methyl isoindoline moiety and their evaluation as NMDA receptor antagonists” (Bioorg Med Chem Lett, 2011)

What was measured:
[1] = Displacement of [3H]MK-801 from high affinity site of NMDA-NR2B receptor in porcine hippocampus synaptosomal fractions after 15 mins; type: tissue-based, Sus scrofa
[2] = Displacement of [3H]-ifenprodil from ifenprodil binding site of NMDA receptor in porcine hippocampus synaptosomal fractions after 2 hrs; type: tissue-based, Sus scrofa
[3] = target: hERG (KCNH2) (Homo sapiens, UniProt Q12809); test: Residual current of human ERG expressed in CHO-K1 cells at 100 uM by patch clamp electrophysiological assay relative to control; conditions: CHO-K1 cells expressing human ERG
Chain of hERG (KCNH2) (Q12809 whole entry): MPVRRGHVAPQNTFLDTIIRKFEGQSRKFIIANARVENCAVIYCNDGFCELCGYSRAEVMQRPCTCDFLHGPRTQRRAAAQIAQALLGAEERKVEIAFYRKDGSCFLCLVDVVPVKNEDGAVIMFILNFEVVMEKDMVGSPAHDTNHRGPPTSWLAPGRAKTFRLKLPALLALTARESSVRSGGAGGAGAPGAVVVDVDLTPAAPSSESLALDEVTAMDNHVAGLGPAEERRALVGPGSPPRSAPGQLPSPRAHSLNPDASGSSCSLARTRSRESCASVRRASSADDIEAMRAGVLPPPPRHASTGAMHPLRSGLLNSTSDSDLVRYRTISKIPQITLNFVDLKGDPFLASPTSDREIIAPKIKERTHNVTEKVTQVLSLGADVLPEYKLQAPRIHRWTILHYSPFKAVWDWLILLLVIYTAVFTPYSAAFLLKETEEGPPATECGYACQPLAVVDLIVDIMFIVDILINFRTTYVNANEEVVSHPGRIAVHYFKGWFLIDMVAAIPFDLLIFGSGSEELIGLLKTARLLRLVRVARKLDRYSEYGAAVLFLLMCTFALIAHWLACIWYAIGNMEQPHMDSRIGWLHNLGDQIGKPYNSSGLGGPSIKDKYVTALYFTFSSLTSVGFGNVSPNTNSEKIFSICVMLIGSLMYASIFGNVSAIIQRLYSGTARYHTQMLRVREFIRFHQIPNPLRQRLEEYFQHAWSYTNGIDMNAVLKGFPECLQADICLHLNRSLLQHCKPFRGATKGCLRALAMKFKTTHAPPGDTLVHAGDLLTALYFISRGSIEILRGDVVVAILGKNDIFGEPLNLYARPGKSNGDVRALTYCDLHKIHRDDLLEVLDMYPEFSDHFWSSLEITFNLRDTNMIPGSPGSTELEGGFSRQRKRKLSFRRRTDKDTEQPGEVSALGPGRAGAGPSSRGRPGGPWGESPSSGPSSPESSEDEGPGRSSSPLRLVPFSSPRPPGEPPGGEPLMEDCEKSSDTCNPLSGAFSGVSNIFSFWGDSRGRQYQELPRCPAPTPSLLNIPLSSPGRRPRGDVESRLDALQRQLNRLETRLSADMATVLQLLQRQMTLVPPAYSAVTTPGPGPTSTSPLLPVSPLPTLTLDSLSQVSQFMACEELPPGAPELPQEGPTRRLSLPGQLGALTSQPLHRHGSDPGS

[4] = Displacement of [3H]MK-801 from low affinity site of NMDA receptor in porcine hippocampus synaptosomal fractions after 15 mins; type: tissue-based, Sus scrofa
[5] = species: Sus scrofa; test: Displacement of [3H]-ifenprodil from ifenprodil binding site of NMDA receptor in porcine hippocampus synaptosomal fractions at 100 uM after 2 hrs relative to control; type: tissue-based
[6] = Displacement of [3H]MK-801 from NMDA-NR2B receptor in porcine hippocampus synaptosomal fractions under nonequilibrium conditions after 15 mins; type: tissue-based, Sus scrofa
[7] = species: Sus scrofa; test: Displacement of [3H]MK-801 from NMDA-NR2B receptor in porcine hippocampus synaptosomal fractions at 100 uM after 15 mins relative to control; type: tissue-based
[8] = Displacement of [3H]-ifenprodil from ifenprodil binding site of NMDA receptor low affinity site in porcine hippocampus synaptosomal fractions after 2 hrs; type: tissue-based, Sus scrofa

Row | SMILES | IC50 [2] [µM] | IC50 [6] [µM] | further results
1 | CN1Cc2ccccc2[C@@H]1C[C@H](O)c1ccc(Cl)cc1 | 0.27 |  | IC50 [1]: 0.5 µM; residual current at 100 µM [3]: 1.6%; IC50 [4]: 67 µM
2 | CN1Cc2ccccc2[C@@H]1C[C@@H](O)c1ccc(Cl)cc1 |  | 26 | Activity [5]: 77%
3 | CN1Cc2ccccc2[C@H]1C[C@@H](O)c1ccc(Cl)cc1 | 11 |  | Activity [7]: 78%
4 | Cc1ccc([C@H](O)C[C@H]2c3ccccc3CN2C)cc1 |  | 28 | Activity [5]: 65%
5 | CN1Cc2ccccc2[C@H]1C[C@H](O)c1ccc(Cl)cc1 | 21 | 47 | 
6 | Cc1ccc([C@@H](O)C[C@H]2c3ccccc3CN2C)cc1 | 0.43 |  | IC50 [1]: 0.21 µM; residual current at 100 µM [3]: 2.6%; IC50 [4]: 20 µM
7 | CN1Cc2ccccc2[C@H]1C[C@H](O)c1ccc([N+](=O)[O-])cc1 | 42 | 43 | 
8 | CN1Cc2ccccc2[C@H]1C[C@@H](O)c1ccc([N+](=O)[O-])cc1 | 52 |  | Activity [7]: 82%
9 | Cc1ccc([C@H](O)C[C@@H]2c3ccccc3CN2C)cc1 | 35 | 31 | 
10 | Cc1ccc([C@@H](O)C[C@@H]2c3ccccc3CN2C)cc1 | 9.3 | 23 | 
11 | CN1Cc2ccccc2[C@@H]1C[C@H](O)c1ccc([N+](=O)[O-])cc1 | 7.5 | 43 | 
12 | CN1Cc2ccccc2[C@@H]1C[C@@H](O)c1ccc([N+](=O)[O-])cc1 |  | 39 | Activity [5]: 54%
13 | COc1cc2c(cc1OC)[C@H](C[C@H](O)c1ccc(Cl)cc1)N(C)CC2 |  |  | IC50 [1]: 0.103 µM; IC50 [8]: 22.5 µM; IC50 [4]: 23.5 µM
